The text below walks through data of PubChem BioAssay (NCI).

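Cultured in 96-well plates, cells were exposed to test compound for 48 hours across five concentrations. At the TGI there is no net growth.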 Some results are limits rather than exact numbers.

Common to all, as to assay: NCI tumour cell line growth inhibition, 48 h
The test system of test [1] is DLD-1 colon.
In test [2] the test system is DMS 273 small cell lung.
Test [3] has as its system IGROV1 ovarian.
In test [4] the test system is KM20L2 colon.
Test [5] concerns MOLT-4 leukemia.
The subject of test [6] is NCI-H226 lung.
The test system of test [7] is NCI-H460 lung.
Test [8] concerns OVCAR-4 ovarian.
For test [9], the system named is OVCAR-8 ovarian.
For test [10], the system named is 786-0 renal.
In test [11] the test system is MDA-MB-231 breast.
Test [12] concerns MDA-MB-435.
Test [13] deals with NCI/ADR-RES ovarian.
Test [14] deals with SNB-19 CNS.

For the compound `CN1C(=O)CN2C(Cl)(Cl)C2(c2ccccc2)c2cc(Cl)ccc21` (stereo not given), the TGI in [1] is more than 100 µM; in [2], more than 100 µM; in test [3], more than 100 µM; in [4], more than 100 µM; in [5], 91.9 µM; in test [6] it was more than 100 µM. For the same compound, the TGI in test [7], in test [8] and in test [9] was more than 100 µM throughout.

For `COc1ccc2c(c1)-c1nc(=O)n(CCCN(C)C)c3ccc([N+](=O)[O-])c(c13)N2`, the TGI in test [10] worked out at 1.94 µM; in test [3] it was 12.3 µM; in test [11], 2.09 µM; in test [12], 32.2 µM; in test [5], 0.841 µM; in test [6], 27.5 µM. Also, the TGI was found to be 15.1 µM in test [7]; 10.4 µM in test [13]; 7.34 µM in test [8]; 19.4 µM in test [9]; 8.58 µM in [14].

As for `O=C(CCc1ccc(O)c(O)c1)NCCc1cc(O)c(O)c(O)c1`, the TGI in [10] was 32.6 µM; in [3], more than 100 µM; in test [11], 28.5 µM; in [12], 31.8 µM; in test [5], 46.5 µM; in test [6] it was more than 100 µM. Besides, the TGI in test [7] is 40.8 µM; in [13], 40.9 µM; in [8], 34.5 µM; in [9] it was 36.2 µM; in [14] it was more than 100 µM.

In the case of `CCCCCCCCCCCCCCCC(=O)Nc1ccn(C2CCC(COP(=O)(O)OCC3OC(n4cc(F)c(=O)[nH]c4=O)CC3OC(C)=O)O2)c(=O)n1` (stereo not given), the TGI is more than 100 µM in test [10]; more than 100 µM in [3]; more than 61.6 µM in [11]; 44.2 µM in test [12]; 30.4 µM in [5]; more than 100 µM in [6]. For the same compound, the TGI was more than 100 µM in test [7]; more than 100 µM in test [13]; more than 86.5 µM in [8]; more than 72.2 µM in test [9]; 35.2 µM in test [14].

`O=C(NCCc1ccccc1)c1cc(/C=C/c2cc(O)ccc2O)ccc1O`: the TGI is 6.18 µM in test [10]; 11.3 µM in test [3]; 12.9 µM in test [11]; 25.8 µM in test [12]; 7.5 µM in [5]; 27.8 µM in [6]. Further, the TGI in test [7] was 24.6 µM; in test [13] it was more than 34.2 µM; in test [8], 3.76 µM; in test [9], 16.3 µM; in test [14] it was 19.6 µM.

Regarding `COC(=O)CC(CNC(=O)OCc1ccccc1)OCc1ccc(OC)cc1` (stereo not given), the TGI in [10], in test [3], in test [11], in test [12], in test [5] and in test [6] was more than 100 µM each time. For the same compound, the TGI in test [7], in test [13], in [8], in test [9] and in test [14] was more than 100 µM in each case.

As for `CCCCCCCc1cscc1-c1cscc1Br`, the TGI was more than 100 µM in test [10]; more than 100 µM in [3]; more than 100 µM in test [11]; more than 100 µM in test [12]; 42.3 µM in test [5]; more than 100 µM in test [6]. The TGI in test [7], in test [13], in test [8], in [9] and in [14] was more than 100 µM throughout.

As for `O=C1CCN2C(=N1)Sc1ccccc12`, the TGI in [10], in test [3], in test [11], in test [12], in test [5] and in test [6] was more than 100 µM throughout. Further, the TGI in test [7], in test [13], in test [8], in test [9] and in [14] was more than 100 µM in each case.

`OCC1OC(n2cnc3c(SCc4ccccc4)ncnc32)C(O)C1O` (stereo not given): the TGI in test [10] was more than 100 µM; in test [3], more than 100 µM; in test [11], more than 100 µM; in test [12] it was more than 100 µM; in [5] it was more than 39.8 µM; in [6], more than 100 µM. Further, the TGI in [7] was more than 100 µM; in [13], more than 100 µM; in [8] it was more than 100 µM; in [9] it was 37.4 µM; in test [14] it was more than 100 µM.

Take `Cc1cccc(N=C/C=C(\Cl)c2ccc3ccccc3c2)c1`: the TGI in test [10] was 34.9 µM; in [3] it was more than 60.3 µM; in [11] it was 33.6 µM; in test [12] it was 39.8 µM; in test [5] it was 8.19 µM; in [6] it was more than 69.3 µM. Also, the TGI in test [7] was more than 80.9 µM; in test [13], 47.7 µM; in test [8] it was 41.2 µM; in test [9] it was 43 µM; in test [14] it was 33 µM.

Take `CCN(CC)C(=S)N/N=C/c1cc(OC)ccc1O`: the TGI is more than 100 µM in test [10]; more than 100 µM in test [3]; more than 100 µM in test [11]; more than 100 µM in test [12]; 28.6 µM in [5]; 25.5 µM in [6]. In addition, the TGI is 14.3 µM in test [7]; 40.4 µM in test [13]; more than 100 µM in test [8]; more than 100 µM in [9]; more than 100 µM in test [14].

Take `Cc1ccc(S(=O)(=O)ON2C(=O)c3c(N)c(C#N)c(-c4ccccc4)c(-c4ccccc4)c3C2=O)cc1`: the TGI in [10] came out at 29.8 µM; in test [3] it was 30.6 µM; in test [11], 36.4 µM; in test [12], 22.1 µM; in test [5] it was 38.7 µM; in test [6] it was 38.7 µM. In addition, the TGI in test [7] was more than 100 µM; in [13] it was 62.4 µM; in test [8], 52.4 µM; in test [9] it was 46 µM; in [14] it was more than 100 µM.

On to `[N-]=[N+]=CC(=O)OCC1NC(=O)C(COC(=O)C=[N+]=[N-])NC1=O` (stereo not given), for which the TGI in test [10], in [3], in [11], in test [12], in test [5] and in test [6] was more than 100 µM in each case. Besides, the TGI in test [7], in test [13], in test [8], in test [9] and in [14] was more than 100 µM each time.

Regarding `CCCCCCCCCC/C=C/C=O`, the TGI in test [1], in test [2], in [3], in test [4], in test [5] and in test [7] was more than 100 µM each time. In addition, the TGI in [9] and in test [14] was more than 100 µM in each case.

Regarding `CCOC(=O)C1(C#N)C(C#N)(C#N)C1(C#N)C#N`, the TGI in [10], in [3], in test [11], in test [12], in test [5] and in [6] was more than 100 µM in each case. Also, the TGI in test [7], in [13], in [8], in test [9] and in test [14] was more than 100 µM in each case.

As for `C(=N\NC1=NCCN1)/c1cccc2cc3ccncc3nc12`, the TGI in test [10] was found to be 4.51 µM; in [3], 15.8 µM; in test [11], 6.13 µM; in test [12], 10.5 µM; in [5], 10.8 µM; in test [6] it was 21.2 µM. Further, the TGI turned out to be 20.5 µM in test [7]; 25.2 µM in test [13]; 12.3 µM in test [8]; 5.15 µM in [9]; 21.4 µM in test [14].

As to `Cc1cccc2c1c(=O)c1c(O)cc3c(c1n2C)C=CC(C)(C)O3`, the TGI in [10], in [3], in test [11], in test [12], in test [5] and in [6] was more than 100 µM each time. For the same compound, the TGI in [7], in [13], in test [8], in test [9] and in [14] was more than 100 µM in each case.

For the compound `Nc1nc(Br)nc2ncn(C3CC(O)C(CO)O3)c12` (stereo not given), the TGI in test [10] was more than 100 µM; in test [3], more than 100 µM; in test [11], more than 100 µM; in test [12], more than 100 µM; in [5], 0.202 µM; in test [6] it was more than 100 µM. The TGI in test [7] is more than 100 µM; in test [13], more than 63.1 µM; in test [8], more than 100 µM; in test [9], more than 100 µM; in [14], more than 100 µM.

Take `C=CC(OC(=O)C(C)C)c1ccc(OC(=O)C(C)C)cc1` (stereo not given): the TGI was found to be 18.9 µM in test [10]; 32.7 µM in test [3]; 35.5 µM in [11]; 26.4 µM in test [12]; 49.7 µM in test [5]; 39 µM in test [6]. In addition, the TGI in test [7] is 30.9 µM; in [13], 54.8 µM; in test [8], 33.8 µM; in test [9], 31.4 µM; in test [14] it was 28.2 µM.

On to `Cc1cc(C)c(S(=O)(=O)N(CCCN)OCCON(CCCN)S(=O)(=O)c2c(C)cc(C)cc2C)c(C)c1`, for which the TGI was 13.1 µM in [10]; 4.67 µM in [3]; more than 23.4 µM in test [11]; more than 23.6 µM in test [12]; more than 100 µM in test [5]; 18.1 µM in test [6]. Further, the TGI was found to be 17 µM in [7]; 46.6 µM in test [13]; 10.3 µM in [8]; 47.7 µM in [9]; 4.37 µM in test [14].

Regarding `Cc1c2ccccc2c(C2C3C(=O)N(c4cccc5ccccc45)C(=O)C3ON2Cc2ccc(CC(N)=O)cc2)c2ccccc12` (stereo not given), the TGI was more than 50 µM in test [10]; more than 50 µM in test [3]; more than 50 µM in test [11]; more than 50 µM in test [12]; 25.7 µM in [5]; 46.5 µM in [6]. The TGI in test [7] is 48.6 µM; in [13], more than 50 µM; in test [8] it was more than 50 µM; in test [9], more than 50 µM; in test [14] it was more than 50 µM.

With `CC(C)CC(NC=O)C(=O)NC(Cc1ccccc1)NC(=O)CNC(=O)C(C)NC(=O)C(N)Cc1ccc(O)cc1` (stereo not given), the TGI in [10], in test [3], in test [11], in test [12], in [5] and in test [6] was more than 100 µM throughout. The TGI in [7], in test [13], in [8], in test [9] and in [14] was more than 100 µM throughout.

`O=C(c1ccccc1)C(Nc1ccc2ccccc2c1)c1ccccc1` (stereo not given): the TGI is more than 100 µM in test [10]; more than 100 µM in test [3]; more than 100 µM in test [11]; more than 48 µM in test [12]; more than 75.6 µM in test [5]; more than 100 µM in [6]. Moreover, the TGI in test [7], in test [13], in test [8], in [9] and in test [14] was more than 100 µM in each case.

On to `Cc1cnc2c(c1)C(=O)N(c1ccc([N+](=O)[O-])cc1)S2(=O)=O`, for which the TGI is more than 100 µM in test [10]; more than 100 µM in test [3]; more than 100 µM in [11]; more than 100 µM in [12]; more than 100 µM in [5]; 78.5 µM in test [6]. In addition, the TGI in test [7], in test [13], in test [8], in [9] and in test [14] was more than 100 µM throughout.

As for `COc1cc2cc3c4cc(OC)c(OC)cc4cc[n+]3c(C)c2cc1OC`, the TGI in test [10] was 37.9 µM; in [3] it was more than 100 µM; in test [11], more than 100 µM; in [12], more than 100 µM; in test [5], more than 100 µM; in test [6] it was more than 100 µM. The TGI in test [7], in [13], in test [8], in [9] and in test [14] was more than 100 µM each time.
